Data as given in BindingDB's records for doi:10.3109/14756366.2011.651463 (Medical University of Bialystok, 2013).

What was measured:
Serine protease 1 = Serine protease 1 (Homo sapiens, UniProt P07477); assay: Tyrpsin Amidolytic Assay; settings: pH 7.5
Procedure: (§1) Buffer and 0.1 mL of enzyme solution was added to 0.2 mL of examined compounddissolved in 0.15 M NaCl (as control 0.15 M NaCl). The buffer and the enzyme solution included: Borane buffer − 0.5 mL (pH 7.5), enzyme: trypsin (0.4units/mL), synthetic substrate: Bzl-L-Arg-pNA HCl (0.2 mL, 8 mM). The mixture was incubated for 3 min at 37°C. After 20 min of incubation, the reaction was stopped by adding 0.1 ml of 50% acetic acid, and the absorbance of the released p-nitroaniline was measured at 405 nm (Spekol 1300, AnalyticJena).

Plasminogen = Plasminogen (Homo sapiens, UniProt P00747); assay: Plasmin Amidolytic Assay; settings: pH 7.4
Chain of Plasminogen (P00747 97-580 limits assumed): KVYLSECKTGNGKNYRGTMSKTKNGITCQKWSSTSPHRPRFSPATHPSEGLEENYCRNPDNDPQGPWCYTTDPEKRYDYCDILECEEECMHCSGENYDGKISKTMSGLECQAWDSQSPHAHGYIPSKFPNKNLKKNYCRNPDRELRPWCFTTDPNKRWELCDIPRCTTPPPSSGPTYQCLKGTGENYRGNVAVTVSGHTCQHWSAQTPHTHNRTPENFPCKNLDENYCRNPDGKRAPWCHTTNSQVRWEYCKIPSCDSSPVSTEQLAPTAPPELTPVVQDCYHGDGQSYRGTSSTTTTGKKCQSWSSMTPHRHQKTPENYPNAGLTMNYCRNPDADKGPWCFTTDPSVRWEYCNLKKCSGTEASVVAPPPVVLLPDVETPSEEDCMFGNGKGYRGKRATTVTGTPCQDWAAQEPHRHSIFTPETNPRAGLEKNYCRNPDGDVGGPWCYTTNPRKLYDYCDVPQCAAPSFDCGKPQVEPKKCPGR
Chain of Plasminogen (P00747 581-810 limits assumed): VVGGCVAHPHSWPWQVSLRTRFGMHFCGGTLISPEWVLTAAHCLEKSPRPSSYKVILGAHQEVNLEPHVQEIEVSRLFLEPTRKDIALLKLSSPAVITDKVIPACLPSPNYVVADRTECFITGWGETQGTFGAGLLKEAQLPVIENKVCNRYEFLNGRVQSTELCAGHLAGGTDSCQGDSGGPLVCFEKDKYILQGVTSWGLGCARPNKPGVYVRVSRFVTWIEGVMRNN
Procedure: as §1, with “Tris” for “Borane”, “7.4),” for “7.5),”, “plasmin (0.4 units/mL),” for “trypsin (0.4units/mL),”, “S-2251” for “Bzl-L-Arg-pNA HCl”, “3” for “8”

[1] = biological target: Urokinase-type plasminogen activator (Homo sapiens, UniProt P00749); assay: Urokinase Amidolytic Assay; settings: pH 8.8
Procedure: as §1, with “Tris” for “Borane”, “0.6” for “0.5”, “8.8),” for “7.5),”, “urokinase (50 units/mL),” for “trypsin (0.4units/mL),”, “S-2444 (0.1” for “Bzl-L-Arg-pNA HCl (0.2”, “3” for “8”

Prothrombin = Prothrombin (Homo sapiens, UniProt P00734); assay: Thrombin Amidolytic Assay; settings: pH 8.4
Procedure: as §1, with “Tris” for “Borane”, “8.4),” for “7.5),”, “thrombin (1 units/mL),” for “trypsin (0.4units/mL),”, “S-2238” for “Bzl-L-Arg-pNA HCl”, “0.75” for “8”

Chain of Serine protease 1 (P07477 whole entry): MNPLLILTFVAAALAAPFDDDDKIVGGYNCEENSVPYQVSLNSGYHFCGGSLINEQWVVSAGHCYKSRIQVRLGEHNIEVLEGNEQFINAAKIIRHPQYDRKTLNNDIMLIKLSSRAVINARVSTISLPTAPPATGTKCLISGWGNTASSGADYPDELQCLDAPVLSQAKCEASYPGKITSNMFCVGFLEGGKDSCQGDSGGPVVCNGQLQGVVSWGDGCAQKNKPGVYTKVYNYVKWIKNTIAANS

Compound	Ki (Serine protease 1)	Ki (Plasminogen)	Ki [1]	Ki (Prothrombin)
N=C(N)NCCC[C@H](NC(=O)[C@H](CCC1CCCCC1)NC(=O)[C@H](N)CO)C(=O)O [H-D-Ser-homoCha-Arg-OH (6)]	27.2 µM	11.2 µM		
N=C(N)NCCC[C@H](NC(=O)[C@H](CCc1ccccc1)NC(=O)[C@H](N)CO)C(=O)O [H-D-Ser-homoPhe-Arg-OH (3)]	23.9 µM	5.9 µM		
N=C(N)NCCC[C@@H](NC(=O)[C@@H](CC1CCCCC1)NC(=O)[C@H](N)CO)C(=O)O [H-D-Ser-Cha-Arg-OH (5)]			247 µM	19.8 µM
N=C(N)NCCC[C@H](NC(=O)[C@H](Cc1ccccc1)NC(=O)[C@H](N)CO)C(=O)O [H-D-Ser-Phe-Arg-OH (2)]	22.9 µM	8.7 µM		
N=C(N)NCCC[C@@H](NC(=O)[C@@H](CCc1ccccc1)NC(=O)[C@H](N)CO)C(=O)O [H-D-Ser-homoPhe-Arg-OH (3)]			566 µM	16.1 µM
N=C(N)NCCC[C@H](NC(=O)C1(NC(=O)[C@H](N)CO)CCCCC1)C(=O)O [H-D-Ser-1ACH-Arg-OH (8)]	26.2 µM	7.7 µM		
N=C(N)NCCC[C@H](NC(=O)[C@H](CC1CCCCC1)NC(=O)[C@H](N)CO)C(=O)O [H-D-Ser-Cha-Arg-OH (5)]	30.9 µM	8.9 µM		
C[C@@](Cc1ccccc1)(NC(=O)[C@H](N)CO)C(=O)N[C@@H](CCCNC(=N)N)C(=O)O [H-D-Ser-αMePhe-Arg-OH (7)]	28.2 µM	7.9 µM		
N=C(N)NCCC[C@@H](NC(=O)C1(NC(=O)[C@H](N)CO)CCCCC1)C(=O)O [H-D-Ser-1ACH-Arg-OH (8)]			395 µM	15 µM
N=C(N)NCCC[C@@H](NC(=O)[C@@H](Cc1ccccc1)NC(=O)[C@H](N)CO)C(=O)O [H-D-Ser-Phe-Arg-OH (2)]			544 µM	12.1 µM
N=C(N)NCCC[C@@H](NC(=O)[C@@H](CCC1CCCCC1)NC(=O)[C@H](N)CO)C(=O)O [H-D-Ser-homoCha-Arg-OH (6)]			451 µM	18.1 µM
